Laboratory results: US20260085062A1, “NOVEL COMPOUNDS AS CK2 INHIBITORS” (Cambridge Enterprise Limited, priority 2022, published 2026)
pIC50: −log10 of the molar value.

Assays:
CK2α = target: T1, CK2α (Homo sapiens, UniProt P68400); test: Biochemical assay for inhibitors of CK2α kinase activity (ADP-Glo); settings: 0.2 nM CK2α, 50 μM peptide substrate, 15 μM ATP, read-out: Assay 1: CK2α Enzyme IC50
T1 construct: CK2α (residues 2-329) was produced in Escherichia coli BL21 (DE3) for kinase activity screening; His6 (N, cleaved yes); made in house; host or cells: Escherichia coli BL21 (DE3)
T1 sequence (P68400 2-329): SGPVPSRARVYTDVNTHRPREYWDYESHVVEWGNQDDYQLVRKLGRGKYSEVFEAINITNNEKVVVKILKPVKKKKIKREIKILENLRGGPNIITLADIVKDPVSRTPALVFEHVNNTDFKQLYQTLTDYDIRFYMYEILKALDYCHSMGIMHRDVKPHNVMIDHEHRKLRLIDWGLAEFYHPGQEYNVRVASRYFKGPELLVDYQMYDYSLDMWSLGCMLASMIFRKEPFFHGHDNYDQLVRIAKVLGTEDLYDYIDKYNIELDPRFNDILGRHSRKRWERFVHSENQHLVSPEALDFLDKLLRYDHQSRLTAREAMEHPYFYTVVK

CLK2 = target: T2, CLK2 (Homo sapiens, UniProt P49760); test: Biochemical assay for inhibitors of CLK2 kinase activity (ADP-Glo); settings: 20 nM CLK2, 50 μM peptide substrate, 100 μM ATP, read-out: Assay 2: CLK2 Enzyme IC50
T2 construct: purchased Carna Biosciences 04-127

intracellular CK2α = target: T3, intracellular CK2α (Homo sapiens, UniProt P19784); test: Cell-based NanoBRET assay for inhibitor binding to intracellular CK2α; settings: HCT116 cells transiently transfected with CSNK2A2-NanoLuc fusion vector; Tracer K-5; 2 h; read-out: Assay 3: NanoBRET ™ assay for binding to intracellular CK2α
T3 construct: host or cells: HCT116 (ATCC CCL-247)
In short: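 Living cells expressing NanoLuc-CK2α fusion were given a fixed tracer concentration, and compounds competitively displaced the reversibly bound tracer. Donor (450 nm) and acceptor (610 or 630 nm) emissions were read; BRET ratio = (acceptor/donor)×1,000, giving apparent intracellular affinity.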

T3 sequence (P19784 whole entry, the tested form may be a part): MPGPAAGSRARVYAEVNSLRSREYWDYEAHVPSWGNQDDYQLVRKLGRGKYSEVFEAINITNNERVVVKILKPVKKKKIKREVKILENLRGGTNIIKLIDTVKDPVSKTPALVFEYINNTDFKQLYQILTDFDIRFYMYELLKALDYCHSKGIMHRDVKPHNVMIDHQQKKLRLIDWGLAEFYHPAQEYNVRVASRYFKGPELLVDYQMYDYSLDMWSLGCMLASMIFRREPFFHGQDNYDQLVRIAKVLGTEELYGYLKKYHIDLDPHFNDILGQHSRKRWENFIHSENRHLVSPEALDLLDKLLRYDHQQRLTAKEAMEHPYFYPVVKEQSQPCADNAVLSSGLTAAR
T2 sequence (P49760 whole entry): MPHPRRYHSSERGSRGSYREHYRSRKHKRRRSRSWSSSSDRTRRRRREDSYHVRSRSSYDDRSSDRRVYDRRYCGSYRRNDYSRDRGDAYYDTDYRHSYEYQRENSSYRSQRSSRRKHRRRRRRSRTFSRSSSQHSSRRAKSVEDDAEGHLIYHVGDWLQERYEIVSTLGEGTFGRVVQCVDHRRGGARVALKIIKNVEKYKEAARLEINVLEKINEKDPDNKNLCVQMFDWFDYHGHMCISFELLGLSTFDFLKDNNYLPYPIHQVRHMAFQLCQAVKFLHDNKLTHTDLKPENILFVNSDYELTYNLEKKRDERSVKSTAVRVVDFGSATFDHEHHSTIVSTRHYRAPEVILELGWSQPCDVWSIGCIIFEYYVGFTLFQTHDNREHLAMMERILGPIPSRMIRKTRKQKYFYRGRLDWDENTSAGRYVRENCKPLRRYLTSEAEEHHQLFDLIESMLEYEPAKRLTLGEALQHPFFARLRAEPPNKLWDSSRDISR

| pIC50 (CK2α) | pIC50 (CLK2) | pIC50 (intracellular CK2α) | Compound |
| --- | --- | --- | --- |
| 6.56 | 5.38 | 4.86 | FC(F)(F)Oc1ccc(CNCCCNCCCOc2cc(-n3cnnc3)cc3[nH]ncc23)cc1Cl [Example 67, N1-(3-((6-(4H-1,2,4-triazol-4-yl)-1H-indazol-4-yl)oxy)propyl)-N3-(3-chloro-4-(trifluoromethoxy)benzyl)propane-1,3-diamine] |
| 7.62 | 5.83 | 5.60 | Cc1c(-c2ccncc2)cc(NCCCNC(=O)CCNCc2ccc(OC(F)(F)F)c(Cl)c2)c2cn[nH]c12 [Example 178, 3-((3-chloro-4-(trifluoromethoxy)benzyl)amino)-N-(3-((7-methyl-6-(pyridin-4-yl)-1H-indazol-4-yl)amino)propyl)propanamide] |
| 9.33 | 7.12 | 7.75 | O=C(CCNCc1ccc(OC(F)(F)F)c(Cl)c1)NCCCNc1cc(-c2cnns2)cc2[nH]ncc12 [Example 32, N-(3-((6-(1,2,3-thiadiazol-5-yl)-1H-indazol-4-yl)amino)propyl)-3-((3-chloro-4-(trifluoromethoxy)benzyl)amino)propanamide] |
| 9.11 | 7.51 | 6.02 | O=C(CCNCc1cc2ccc(Cl)cc2[nH]1)NCCCNc1cc(-n2cnnc2)cc2[nH]ncc12 [Example 37, N-(3-((6-(4H-1,2,4-triazol-4-yl)-1H-indazol-4-yl)amino)propyl)-3-(((6-chloro-1H-indol-2-yl)methyl)amino)propanamide] |
| 7.14 | 5.14 | 5.43 | Cc1cnccc1-c1cc(NCCCNC(=O)CCNCc2ccc(OC(F)(F)F)c(Cl)c2)c2cn[nH]c2c1 [Example 165, 3-((3-chloro-4-(trifluoromethoxy)benzyl)amino)-N-(3-((6-(3-methylpyridin-4-yl)-1H-indazol-4-yl)amino)propyl)propanamide] |
| 7.10 | 5.25 | 5.19 | O=C(CCNCc1ccc(OC(F)(F)F)c(Cl)c1)NCCCNc1cc(-c2ccncc2Cl)cc2[nH]ncc12 [Example 169, 3-((3-chloro-4-(trifluoromethoxy)benzyl)amino)-N-(3-((6-(3-chloropyridin-4-yl)-1H-indazol-4-yl)amino)propyl)propanamide] |
| 8.13 | 6.16 | 6.09 | O=C(CCNCc1ccc(-c2ccccc2)c(Cl)c1)NCCCNc1cc(C2COC2)cc2[nH]ncc12 [Example 81, 3-(((2-chloro-[1,1′-biphenyl]-4-yl)methyl)amino)-N-(3-((6-(oxetan-3-yl)-1H-indazol-4-yl)amino)propyl)propanamide] |
| 8.10 | 6.46 | 5.73 | FC(F)(F)Oc1ccc(CNCCc2ncc(CCNc3cc(-n4cnnc4)cc4[nH]ncc34)o2)cc1Cl [Example 64, N-(2-(2-(2-((3-chloro-4-(trifluoromethoxy)benzyl)amino)ethyl)oxazol-5-yl)ethyl)-6-(4H-1,2,4-triazol-4-yl)-1H-indazol-4-amine] |
| 9.32 | 7.11 | 6.34 | O=C(CCNCc1ccc(OC(F)(F)F)c(Cl)c1)NCCCNc1cc(-n2cnnc2)cc2[nH]ncc12 [Example 33, N-(3-((6-(4H-1,2,4-triazol-4-yl)-1H-indazol-4-yl)amino)propyl)-3-((3-chloro-4-(trifluoromethoxy)benzyl)amino)propanamide] |
| 7.47 | 6.94 | 5.23 | OCc1cc(F)cc(CNCCCCOC2CN(c3cc(-c4cnoc4)cc4[nH]ncc34)C2)c1 [Example 138, (3-fluoro-5-(((4-((1-(6-(isoxazol-4-yl)-1H-indazol-4-yl)azetidin-3-yl)oxy)butyl)amino)methyl)phenyl)methanol] |
| 8.50 | 6.24 | 5.30 | O=C(CCNCc1ccc(OC(F)(F)F)c(Cl)c1)NCCCOc1cc(-n2cnnc2)cc2[nH]ncc12 [Example 19, N-(3-((6-(4H-1,2,4-triazol-4-yl)-1H-indazol-4-yl)oxy)propyl)-3-((3-chloro-4-(trifluoromethoxy)benzyl)amino)propanamide] |
| 9.11 | 6.46 | 6.23 | FC(F)(F)Oc1ccc(CNCCCCNCCNc2cc(-n3cnnc3)cc3[nH]ncc23)cc1Cl [Example 24, N^1-(2-((6-(4H-1,2,4-triazol-4-yl)-1H-indazol-4-yl)amino)ethyl)-N^4-(3-chloro-4-(trifluoromethoxy)benzyl)butane-1,4-diamine] |
| 7.25 | 5.90 | 4.93 | N#Cc1nncn1-c1cc(NCCCNC(=O)CCNCc2ccc(OC(F)(F)F)c(Cl)c2)c2cn[nH]c2c1 [Example 177, 3-((3-chloro-4-(trifluoromethoxy)benzyl)amino)-N-(3-((6-(3-cyano-4H-1,2,4-triazol-4-yl)-1H-indazol-4-yl)amino)propyl)propanamide] |
| 7.58 | 6.89 | 4.97 | N#CCc1cc(F)cc(CNCCCCOC2CN(c3cc(-n4cnnc4)cc4[nH]ncc34)C2)c1 [Example 103, 2-(3-(((4-((1-(6-(4H-1,2,4-triazol-4-yl)-1H-indazol-4-yl)azetidin-3-yl)oxy)butyl)amino)methyl)-5-fluorophenyl)acetonitrile] |
| 9.03 | 7.77 | 6.75 | Nc1cc(-c2cc(NCCCNC(=O)CCNCc3ccc(OC(F)(F)F)c(Cl)c3)c3cn[nH]c3c2)ccn1 [Example 184, N-(3-((6-(2-aminopyridin-4-yl)-1H-indazol-4-yl)amino)propyl)-3-((3-chloro-4-(trifluoromethoxy)benzyl)amino)propanamide] |
| 7.71 | 5.00 | 5.67 | N#Cc1cc(-c2cc(NCCCNC(=O)CCNCc3ccc(-c4ccccc4)c(Cl)c3)c3cn[nH]c3c2)ccn1 [Example 74, 3-(((2-chloro-[1,1′-biphenyl]-4-yl)methyl)amino)-N-(3-((6-(2-cyanopyridin-4-yl)-1H-indazol-4-yl)amino)propyl)propanamide] |
| 9.72 | 6.63 | 7.29 | O=C(CCNCc1ccc(-c2ccccc2)c(Cl)c1)NCCCNc1cc(-c2ccnnc2)cc2[nH]ncc12 [Example 6, 3-(((2-chloro-[1,1′-biphenyl]-4-yl)methyl)amino)-N-(3-((6-(pyridazin-4-yl)-1H-indazol-4-yl)amino)propyl)propanamide] |
| 8.08 | 5.56 | 5.42 | O=C(CNCCCCNCc1ccc(OC(F)(F)F)c(Cl)c1)Nc1cc(-n2cnnc2)cc2[nH]ncc12 [Example 17, N-(6-(4H-1,2,4-triazol-4-yl)-1H-indazol-4-yl)-2-((4-((3-chloro-4-(trifluoromethoxy)benzyl)amino)butyl)amino)acetamide] |
| 6.98 | 5.46 | 6.75 | O=C(CCNCc1ccc(-c2ccccc2)c(Cl)c1)NCCCNc1cccc2[nH]ncc12 [Example 61, N-(3-((1H-indazol-4-yl)amino)propyl)-3-(((2-chloro-[1,1′-biphenyl]-4-yl)methyl)amino)propenamide] |
| 8.53 | 6.62 | 6.87 | O=C(CCNCc1ccc(OC(F)(F)F)c(Cl)c1)NCCCNc1cc(-c2cnco2)cc2[nH]ncc12 [Example 164, 3-((3-chloro-4-(trifluoromethoxy)benzyl)amino)-N-(3-((6-(oxazol-5-yl)-1H-indazol-4-yl)amino)propyl)propanamide] |

| Compound | pIC50 (CK2α) | pIC50 (CLK2) | pIC50 (intracellular CK2α) |
| --- | --- | --- | --- |
| c1cc(-c2cc(OCCOCCCCNCc3cc4cc(OC5CCC5)ccc4[nH]3)c3cn[nH]c3c2)cnn1 [Example 55, N-((5-cyclobutoxy-1H-indol-2-yl)methyl)-4-(2-((6-(pyridazin-4-yl)-1H-indazol-4-yl)oxy)ethoxy)butan-1-amine] | 8.90 | 5.32 | 6.83 |
| O=C(O)CCc1cc(NCCOCCCCNCc2cc3cc(C(F)(F)F)ccc3[nH]2)c2cn[nH]c2c1 [Example 89, 3-(4-((2-(4-(((5-(trifluoromethyl)-1H-indol-2-yl)methyl)amino)butoxy)ethyl)amino)-1H-indazol-6-yl)propanoic acid] | < 6.00 | 4.74 | < 4.30 |
| FC(F)(F)c1ccc2[nH]c(CNCCCCOCCNc3cc(-n4cnnc4)cc4[nH]nnc34)cc2c1 [Example 142, 6-(4H-1,2,4-triazol-4-yl)-N-(2-(4-(((5-(trifluoromethyl)-1H-indol-2-yl)methyl)amino)butoxy)ethyl)-1H-benzo[d][1,2,3]triazol-4-amine] | 8.27 | 5.32 | 5.41 |
| N#Cc1cc(NCCOCCCCNCc2cc3cc(C(F)(F)F)ccc3[nH]2)c2cn[nH]c2c1 [Example 96, 4-((2-(4-(((5-(trifluoromethyl)-1H-indol-2-yl)methyl)amino)butoxy)ethyl)amino)-1H-indazole-6-carbonitrile] | 7.57 | 6.64 | 5.70 |
